In the SangsterLogP compilation:

Assay: method code SF-HPLC, from DOI: 10.1080/10826079808000494
Details: pH 6.9

Compound	logD
CCOC(=O)C1=C(C)NC(C)=C(C(=O)OC)C1c1cc(OC)c(O)c(OC)c1 (stereo not given)	2.43
CCOC(=O)C1=C(C)NC(C)=C(C(=O)OC)C1c1cc(OC)cc(OC)c1 (stereo not given)	3.68
CCOC(=O)C1=C(C)NC(C)=C(C(=O)OC)C1c1ccc(OC)c(OC)c1 (stereo not given)	3.2
CCOC(=O)C1=C(C)NC(C)=C(C(=O)OC(C)C)C1c1cccc2c1OCO2 (stereo not given)	4.31
COCCOC(=O)C1=C(C)NC(C)=C(C(=O)OC(C)C)C1c1cccc2c1OCO2 (stereo not given)	3.54
COC(=O)C1=C(C)NC(C)=C(C(=O)OC(C)C)C1c1cccc2c1OCO2 (stereo not given)	3.75
CCOC(=O)C1=C(C)NC(C)=C(C(=O)OC)C1c1ccccc1 (stereo not given)	3.74
CCOC(=O)C1=C(C)NC(C)=C(C(=O)OC)C1c1cccc2c1OCCO2 (stereo not given)	3.17
CCOC(=O)C1=C(C)NC(C)=C(C(=O)OC)C1c1cc(OC)c(OC)c(OC)c1 (stereo not given)	2.99

Next, values leading:

logD	Compound
3.21	COC(=O)C1=C(C)NC(C)=C(C(=O)OCc2cccnc2)C1c1cccc2c1OCO2 (stereo not given)
3.06	COC(=O)C1=C(C)NC(C)=C(C(=O)OC)C1c1cccc2c1OCO2
3.38	CCOC(=O)C1=C(C)NC(C)=C(C(=O)OC)C1c1ccccc1OCOC (stereo not given)
3.18	CCOC(=O)C1=C(C)NC(C)=C(C(=O)OC)C1c1cccc(OC)c1OC (stereo not given)
2.47	CC1=C(C#N)C(C)(C)C(C#N)=C(C)N1
3.92	CCOC(=O)C1=C(C)NC(C)=C(C(=O)OCC)C1c1cccc2c1OCO2
